This is an account of results in paper PMC5218480 (PLoS ONE, 2017).

The test system of this test is MV-4-11 cells. The test is described as follows: Gene expression microarray analysis (Affymetrix PrimeView) and GSEA. It counts as cell-based, human. The arrangement: RFU PODN (11730768_x_at) / Fold change /veh PODN (11730768_x_at) / RFU LINC00158 (11744669_a_at) / Fold change /veh LINC00158 (11744669_a_at) / RFU DUSP10 (11751237_a_at) / Fold change /veh DUSP10 (11751237_a_at) / RFU ID3 (11757404_x_at) / Fold change /veh ID3 (11757404_x_at) / RFU PLEKHG5 (11737974_s_at) / Fold change /veh PLEKHG5 (11737974_s_at) / RFU LRRC4B (11730491_at) / Fold change /veh LRRC4B (11730491_at) / RFU GIMAP4 (11747438_a_at) / Fold change /veh GIMAP4 (11747438_a_at) / RFU KRT8 (11758183_x_at) / Fold change /veh KRT8 (11758183_x_at) / RFU CNN1 (11734310_a_at) / Fold change /veh CNN1 (11734310_a_at) / RFU VPS37D (11726825_at) / Fold change /veh VPS37D (11726825_at) / RFU C10orf10 (11716522_x_at) / Fold change /veh C10orf10 (11716522_x_at) / RFU KIR2DL2 /// KIR2DL4 /// KIR2DL5A /// KIR2DL5B /// KIR2DS1 /// KIR2DS2 /// KIR2DS3 /// KIR2DS4 /// KIR3DL3 /// KIR3DL3 /// KIR3DS1 (11738374_at) / Fold change /veh KIR2DL2 /// KIR2DL4 /// KIR2DL5A /// KIR2DL5B /// KIR2DS1 /// KIR2DS2 /// KIR2DS3 /// KIR2DS4 /// KIR3DL3 /// KIR3DL3 /// KIR3DS1 (11738374_at) / RFU C1QL1 (11718748_at) / Fold change /veh C1QL1 (11718748_at) / RFU TMPRSS4 (11747572_a_at) / Fold change /veh TMPRSS4 (11747572_a_at) / RFU HAMP (11756126_x_at) / Fold change /veh HAMP (11756126_x_at) / RFU RNFT2 (11725882_a_at) / Fold change /veh RNFT2 (11725882_a_at) / RFU NR4A2 (11747474_a_at) / Fold change /veh NR4A2 (11747474_a_at) / RFU ABCC12 (11746883_a_at) / Fold change /veh ABCC12 (11746883_a_at) / RFU TMEM136 (11760407_x_at) / Fold change /veh TMEM136 (11760407_x_at) / RFU CLDN22 /// WWC2 (11732394_at) / Fold change /veh CLDN22 /// WWC2 (11732394_at) / RFU HLA-DPB1 (11760878_x_at) / Fold change /veh HLA-DPB1 (11760878_x_at) / RFU SPINT1 (11716480_a_at) / Fold change /veh SPINT1 (11716480_a_at) / RFU GAP43 (11754022_s_at) / Fold change /veh GAP43 (11754022_s_at) / RFU A4GNT (11735810_at) / Fold change /veh A4GNT (11735810_at) / RFU PRB3 (11715151_x_at) / Fold change /veh PRB3 (11715151_x_at) / RFU TUBB4B (11761932_at) / Fold change /veh TUBB4B (11761932_at) / RFU CAPN14 (11732068_a_at) / Fold change /veh CAPN14 (11732068_a_at) / RFU TMCC2 (11721928_a_at) / Fold change /veh TMCC2 (11721928_a_at) / RFU IRGQ (11745062_a_at) / Fold change /veh IRGQ (11745062_a_at) / RFU FAM174B (11720279_a_at) / Fold change /veh FAM174B (11720279_a_at) / RFU TMPRSS4 (11748680_a_at) / Fold change /veh TMPRSS4 (11748680_a_at) / RFU FAM212B (11763350_a_at) / Fold change /veh FAM212B (11763350_a_at) / RFU PLEKHG5 (11743358_a_at) / Fold change /veh PLEKHG5 (11743358_a_at) / RFU ZSCAN30 (11745921_a_at) / Fold change /veh ZSCAN30 (11745921_a_at) / RFU CMKLR1 (11741424_a_at) / Fold change /veh CMKLR1 (11741424_a_at) / RFU LOC101060620 /// MAPK8IP1 (11723275_at) / Fold change /veh LOC101060620 /// MAPK8IP1 (11723275_at) / RFU SPTSSB (11747773_x_at) / Fold change /veh SPTSSB (11747773_x_at) / RFU PRSS12 (11739890_at) / Fold change /veh PRSS12 (11739890_at) / RFU BIN1 (11741810_x_at) / Fold change /veh BIN1 (11741810_x_at) / RFU WNT11 (11732464_a_at) / Fold change /veh WNT11 (11732464_a_at) / RFU C10orf10 (11716521_a_at) / Fold change /veh C10orf10 (11716521_a_at) / RFU C5orf56 (11738089_at) / Fold change /veh C5orf56 (11738089_at) / RFU CYB561 (11721691_x_at) / Fold change /veh CYB561 (11721691_x_at) / RFU ANKRD19P (11752326_a_at) / Fold change /veh ANKRD19P (11752326_a_at) / RFU OR2T12 /// OR2T33 /// OR2T8 (11738714_s_at) / Fold change /veh OR2T12 /// OR2T33 /// OR2T8 (11738714_s_at) / RFU VCAN (11748164_a_at) / Fold change /veh VCAN (11748164_a_at) / RFU JSRP1 (11732532_at) / Fold change /veh JSRP1 (11732532_at) / RFU KRTAP10-11 (11738290_x_at) / Fold change /veh KRTAP10-11 (11738290_x_at) / RFU MYO3A (11730013_a_at) / Fold change /veh MYO3A (11730013_a_at) / RFU EBF3 (11725865_a_at) / Fold change /veh EBF3 (11725865_a_at) / RFU CAMK2N1 (11719241_x_at) / Fold change /veh CAMK2N1 (11719241_x_at) / RFU C5orf56 (11738088_a_at) / Fold change /veh C5orf56 (11738088_a_at) / RFU OLFML3 (11715873_a_at) / Fold change /veh OLFML3 (11715873_a_at) / RFU LOC100653217 /// NTM (11731650_a_at) / Fold change /veh LOC100653217 /// NTM (11731650_a_at) / RFU MAPK11 (11762145_a_at) / Fold change /veh MAPK11 (11762145_a_at) / RFU FIZ1 (11724087_x_at) / Fold change /veh FIZ1 (11724087_x_at) / RFU OASL (11726364_x_at) / Fold change /veh OASL (11726364_x_at) / RFU SOX15 (11748057_x_at) / Fold change /veh SOX15 (11748057_x_at) / RFU CD79A (11719716_a_at) / Fold change /veh CD79A (11719716_a_at) / RFU HIST1H1D (11736915_at) / Fold change /veh HIST1H1D (11736915_at) / RFU CASKIN2 (11723855_a_at) / Fold change /veh CASKIN2 (11723855_a_at) / RFU LOC730098 (11760151_x_at) / Fold change /veh LOC730098 (11760151_x_at) / RFU OR4N2 (11742367_at) / Fold change /veh OR4N2 (11742367_at) / RFU PRRT2 (11749266_a_at) / Fold change /veh PRRT2 (11749266_a_at) / RFU SNX32 (11753110_a_at) / Fold change /veh SNX32 (11753110_a_at) / RFU CDHR5 (11726645_a_at) / Fold change /veh CDHR5 (11726645_a_at) / RFU RCAN1 (11760418_a_at) / Fold change /veh RCAN1 (11760418_a_at) / RFU FAM167A (11723789_a_at) / Fold change /veh FAM167A (11723789_a_at) / RFU FAM26E (11764081_at) / Fold change /veh FAM26E (11764081_at) / RFU ISYNA1 (11749810_s_at) / Fold change /veh ISYNA1 (11749810_s_at) / RFU ACY1 (11761880_at) / Fold change /veh ACY1 (11761880_at) / RFU 11764098_at / Fold change /veh 11764098_at / RFU SAMD14 (11745864_x_at) / Fold change /veh SAMD14 (11745864_x_at) / RFU NPB (11741838_a_at) / Fold change /veh NPB (11741838_a_at) / RFU TMPRSS6 (11731388_a_at) / Fold change /veh TMPRSS6 (11731388_a_at) / RFU KRTAP10-2 (11738614_at) / Fold change /veh KRTAP10-2 (11738614_at) / RFU ARHGAP8 /// PRR5-ARHGAP8 (11727945_x_at) / Fold change /veh ARHGAP8 /// PRR5-ARHGAP8 (11727945_x_at) / RFU KRTAP5-7 /// NADSYN1 (11734609_at) / Fold change /veh KRTAP5-7 /// NADSYN1 (11734609_at) / RFU RASL12 (11751679_a_at) / Fold change /veh RASL12 (11751679_a_at) / RFU CDKN2B (11736163_a_at) / Fold change /veh CDKN2B (11736163_a_at) / RFU PRF1 (11729649_at) / Fold change /veh PRF1 (11729649_at) / RFU, ZNF638 /// ZNF638-IT1 / Fold change vs veh, ZNF638 /// ZNF638-IT1 / RFU, PANK3 / Fold change vs veh, PANK3 / RFU, SH3YL1 / Fold change vs veh, SH3YL1 / RFU, ZEB2 / Fold change vs veh, ZEB2 / RFU, NRIP1 / Fold change vs veh, NRIP1 / RFU, PTTG1IP / Fold change vs veh, PTTG1IP / RFU, CAPN2 / Fold change vs veh, CAPN2 / RFU, MED14 / Fold change vs veh, MED14 / RFU, SNORA58 / Fold change vs veh, SNORA58 / RFU, C1orf63 / Fold change vs veh, C1orf63 / RFU, LRRFIP1 / Fold change vs veh, LRRFIP1 / RFU, NDUFAF7 / Fold change vs veh, NDUFAF7 / RFU, SLC12A2 / Fold change vs veh, SLC12A2 / RFU, IBTK / Fold change vs veh, IBTK / RFU, ESF1 / Fold change vs veh, ESF1 / Fold change vs veh, TMEM50B / RFU, TAOK1 / Fold change vs veh, TAOK1 / RFU, ACBD3 / Fold change vs veh, ACBD3 / RFU, TMA16 / Fold change vs veh, TMA16 / RFU, RWDD3 / Fold change vs veh, RWDD3 / RFU, BCAT1 / Fold change vs veh, BCAT1 / RFU, EDEM3 / Fold change vs veh, EDEM3 / RFU, TMEM33 / Fold change vs veh, TMEM33 / RFU, WDR75 / Fold change vs veh, WDR75 / RFU, AHCTF1 / Fold change vs veh, AHCTF1 / RFU, TFRC / Fold change vs veh, TFRC / RFU, ZDHHC17 / Fold change vs veh, ZDHHC17 / RFU, NOM1 / Fold change vs veh, NOM1 / RFU, ARL8B / Fold change vs veh, ARL8B / RFU, ZBTB11 / Fold change vs veh, ZBTB11 / RFU, TAMM41 / Fold change vs veh, TAMM41 / RFU, KIAA1704 /// LOC100996395 / Fold change vs veh, KIAA1704 /// LOC100996395 / RFU, ING1 / Fold change vs veh, ING1 / RFU, TRMT61B / Fold change vs veh, TRMT61B / RFU, FUBP3 / Fold change vs veh, FUBP3 / RFU, TP53 / Fold change vs veh, TP53 / RFU, TNKS2 / Fold change vs veh, TNKS2 / RFU, ZFP14 / Fold change vs veh, ZFP14 / RFU, ACTR2 / Fold change vs veh, ACTR2 / RFU, PPP3R1 / Fold change vs veh, PPP3R1 / RFU, PIK3R1 / Fold change vs veh, PIK3R1 / RFU, HNRNPA1 / Fold change vs veh, HNRNPA1 / RFU, RNF170 / Fold change vs veh, RNF170 / RFU, ZNF28 / Fold change vs veh, ZNF28 / RFU, RNGTT / Fold change vs veh, RNGTT / RFU, OGT / Fold change vs veh, OGT / RFU, BRD1 / Fold change vs veh, BRD1 / RFU, MARS / Fold change vs veh, MARS / RFU, ZNF655 / Fold change vs veh, ZNF655 / RFU, FAHD1 / Fold change vs veh, FAHD1 / RFU, BDP1 / Fold change vs veh, BDP1 / RFU, LRRCC1 / Fold change vs veh, LRRCC1 / RFU, ARID1A / Fold change vs veh, ARID1A / RFU, ZNF146 / Fold change vs veh, ZNF146 / RFU, ZNF330 / Fold change vs veh, ZNF330 / RFU, GPN3 / Fold change vs veh, GPN3 / RFU, C9orf123 / Fold change vs veh, C9orf123 / RFU, N4BP2L2 / Fold change vs veh, N4BP2L2 / RFU, ARFIP1 / Fold change vs veh, ARFIP1 / RFU, FAM179B / Fold change vs veh, FAM179B / RFU, BCL10 / Fold change vs veh, BCL10 / RFU, UHRF1BP1L / Fold change vs veh, UHRF1BP1L / RFU, BET1 / Fold change vs veh, BET1 / RFU, CNOT2 / Fold change vs veh, CNOT2 / RFU, ZNF268 / Fold change vs veh, ZNF268 / Fold change vs veh, ZNF507 / RFU, DGCR2 / Fold change vs veh, DGCR2 / RFU, WDSUB1 / Fold change vs veh, WDSUB1 / Fold change vs veh, HSP90B1 /// MIR3652 / RFU, ADSS / Fold change vs veh, ADSS / RFU, GK / Fold change vs veh, GK / RFU, ZNF148 / Fold change vs veh, ZNF148 / RFU, TAF9 / Fold change vs veh, TAF9 / RFU, SLC1A5 / Fold change vs veh, SLC1A5 / RFU, SLMO2 / Fold change vs veh, SLMO2 / RFU, ABCC4 / Fold change vs veh, ABCC4 / RFU, LOC101060439 /// RAP1B / Fold change vs veh, LOC101060439 /// RAP1B / RFU, RFX7 / Fold change vs veh, RFX7 / RFU, GTPBP10 / Fold change vs veh, GTPBP10 / RFU, CNEP1R1 / Fold change vs veh, CNEP1R1 / RFU, BIVM-ERCC5 /// ERCC5 / Fold change vs veh, BIVM-ERCC5 /// ERCC5 / RFU, ILF3 / Fold change vs veh, ILF3 / RFU 11762660_at / Fold change /veh 11762660_at / RFU VCAN (11757783_s_at) / Fold change /veh VCAN (11757783_s_at) / RFU DDX43 (11728927_at) / Fold change /veh DDX43 (11728927_at) / RFU KRT8 (11758188_x_at) / Fold change /veh KRT8 (11758188_x_at) / RFU NKD1 (11759106_at) / Fold change /veh NKD1 (11759106_at) / RFU SRD5A1 (11742802_a_at) / Fold change /veh SRD5A1 (11742802_a_at) / RFU TPSAB1 /// TPSB2 (11721975_s_at) / Fold change /veh TPSAB1 /// TPSB2 (11721975_s_at) / RFU GSTM3 (11746129_a_at) / Fold change /veh GSTM3 (11746129_a_at) / RFU IL23R (11737362_x_at) / Fold change /veh IL23R (11737362_x_at) / RFU TMEM51 (11727254_a_at) / Fold change /veh TMEM51 (11727254_a_at) / RFU PIWIL2 (11732686_x_at) / Fold change /veh PIWIL2 (11732686_x_at) / RFU ORM1 (11744905_x_at) / Fold change /veh ORM1 (11744905_x_at) / RFU CCDC152 (11743942_at) / Fold change /veh CCDC152 (11743942_at) / RFU ECM1 (11717891_a_at) / Fold change /veh ECM1 (11717891_a_at) / RFU IL23R (11748794_a_at) / Fold change /veh IL23R (11748794_a_at) / RFU TNFAIP8L3 (11732012_x_at) / Fold change /veh TNFAIP8L3 (11732012_x_at) / RFU MBOAT4 (11741988_at) / Fold change /veh MBOAT4 (11741988_at) / RFU 11764193_at / Fold change /veh 11764193_at / RFU TMEM53 (11763286_at) / Fold change /veh TMEM53 (11763286_at) / RFU MAGEB2 (11727129_at) / Fold change /veh MAGEB2 (11727129_at) / RFU TMEM200A (11744735_a_at) / Fold change /veh TMEM200A (11744735_a_at) / RFU CCDC152 (11751479_a_at) / Fold change /veh CCDC152 (11751479_a_at) / RFU FAM211A (11726209_a_at) / Fold change /veh FAM211A (11726209_a_at) / RFU RGS16 (11746705_a_at) / Fold change /veh RGS16 (11746705_a_at) / RFU VCAN (11755009_s_at) / Fold change /veh VCAN (11755009_s_at) / RFU RHOB (11743442_s_at) / Fold change /veh RHOB (11743442_s_at) / RFU RGS16 (11720943_a_at) / Fold change /veh RGS16 (11720943_a_at) / RFU RGS16 (11720944_at) / Fold change /veh RGS16 (11720944_at) / RFU, VPS4B / Fold change vs veh, VPS4B / RFU, CREB1 / Fold change vs veh, CREB1 / RFU, DNAJC13 / Fold change vs veh, DNAJC13 / RFU, GNAQ / Fold change vs veh, GNAQ / RFU, CDK5R1 / Fold change vs veh, CDK5R1 / RFU, ZRANB3 / Fold change vs veh, ZRANB3 / RFU, CUL4A / Fold change vs veh, CUL4A / RFU, CCNY / Fold change vs veh, CCNY / RFU, UFL1 / Fold change vs veh, UFL1 / RFU, COG3 / Fold change vs veh, COG3 / RFU, DIAPH2 / Fold change vs veh, DIAPH2 / RFU, SKA2 / Fold change vs veh, SKA2 / RFU, AFF3 / Fold change vs veh, AFF3 / RFU, LMF1 / Fold change vs veh, LMF1 / RFU, IPO11 / Fold change vs veh, IPO11 / RFU, DFFB / Fold change vs veh, DFFB / RFU, FOXP1 / Fold change vs veh, FOXP1 / RFU, CARD8 / Fold change vs veh, CARD8 / RFU, STRN3 / Fold change vs veh, STRN3 / RFU, ADK / Fold change vs veh, ADK / RFU, RASSF2 / Fold change vs veh, RASSF2 / RFU, WIPF1 / Fold change vs veh, WIPF1 / RFU, LARP1B / Fold change vs veh, LARP1B / RFU, RASA1 / Fold change vs veh, RASA1 / RFU, RB1 / Fold change vs veh, RB1 / RFU, PPFIA1 / Fold change vs veh, PPFIA1 / RFU, MAT2A / Fold change vs veh, MAT2A / RFU, CCT5 / Fold change vs veh, CCT5 / RFU, WDR92 / Fold change vs veh, WDR92 / RFU, CUX1 / Fold change vs veh, CUX1 / RFU, TTC7A / Fold change vs veh, TTC7A / RFU, TMEM135 / Fold change vs veh, TMEM135 / RFU, DEPTOR / Fold change vs veh, DEPTOR / RFU, CPM / Fold change vs veh, CPM / RFU, DNAJB6 / Fold change vs veh, DNAJB6 / RFU, CACNA2D3 / Fold change vs veh, CACNA2D3 / RFU, DTX4 / Fold change vs veh, DTX4 / RFU, TFCP2 / Fold change vs veh, TFCP2 / RFU, GMCL1 /// GMCL1P1 / Fold change vs veh, GMCL1 /// GMCL1P1 / RFU, AEBP2 / Fold change vs veh, AEBP2 / RFU, SNHG1 /// SNORD22 /// SNORD25 /// SNORD26 /// SNORD27 /// SNORD28 /// SNORD29 /// SNORD31 / Fold change vs veh, SNHG1 /// SNORD22 /// SNORD25 /// SNORD26 /// SNORD27 /// SNORD28 /// SNORD29 /// SNORD31 / Fold change (Aza/veh), C12orf56 (ProbeSet 11735607_a_at) / Fold change (ACY-1035/veh), C12orf56 (ProbeSet 11735607_a_at) / Fold change (Aza/veh), FGFR1OP (ProbeSet 11751329_s_at) / Fold change (ACY-1035/veh), FGFR1OP (ProbeSet 11751329_s_at) / Fold change (Aza/veh), VPS36 (ProbeSet 11739960_a_at) / Fold change (ACY-1035/veh), VPS36 (ProbeSet 11739960_a_at) / RFU SYPL1 (11715823_x_at) / Fold change /veh SYPL1 (11715823_x_at) / RFU IGFBP7 (11715501_s_at) / Fold change /veh IGFBP7 (11715501_s_at) / RFU REEP3 (11722064_at) / Fold change /veh REEP3 (11722064_at) / RFU IGLL1 (11728026_x_at) / Fold change /veh IGLL1 (11728026_x_at): dose or concentration left out as unconfirmed. The conditions noted are these: ProbeSet 11729384_s_at; LIST D.

Regarding `Nc1ncn([C@@H]2O[C@H](CO)[C@@H](O)[C@H]2O)c(=O)n1` [azacitidine], the “RFU, CCNY” value is on record as 167.26 RFU.
